What was measured:
[1] = molecular target: recombinant human PIM1 (Homo sapiens (Human), UniProt P11309); test: PIM-1 kinase activity in cell-free in vitro assay; assay type: biochemical; conditions: cell-free assay; for inhibition at 0.5 µM: 500 nM compound, read-out: PIM-1: % inh 500 nM
[2] = system: Jurkat; test: Cell proliferation modulatory activity, Jurkat; assay type: cell-based; conditions: Homo sapiens; Jurkat cells
[3] = system: HCT-116 human colorectal carcinoma cells; test: Cell-proliferation assay using Alamar Blue dye; assay type: cell-based; conditions: Homo sapiens, HCT-116, second HCT-116 column (c8); read-out: HCT-116 (uM) cell proliferation modulatory activity;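 further: cells exposed to compound for about 4 days, then Alamar Blue added and dye fluorescence read after about 4 h, compared with medium-only control wells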
[4] = system: MV-4-11; test: Cell proliferation modulatory activity, MV-4-11; assay type: cell-based; conditions: Homo sapiens, MV4-11; MV-4-11 cells
[5] = system: K-562; test: Cell proliferation modulatory activity, K-562; assay type: cell-based; conditions: Homo sapiens, K562; K-562 cells
[6] = molecular target: Flt3 (Homo sapiens (Human), UniProt P36888); conditions: cited from earlier work
[7] = system: leukemic cells from AML patients; conditions: cited from earlier work
[8] = system: MOLM-13 (AML) xenograft; conditions: MOLM-13 (AML) xenograft model; cited from earlier work
[9] = system: MV-4-11 (AML) xenograft; conditions: MV-4-11 (AML) xenograft model; cited from earlier work
[10] = system: K-562; test: Cell-proliferation assay using Alamar Blue dye; assay type: cell-based; conditions: Homo sapiens, K562
[11] = system: A549; test: Cell-proliferation assay using Alamar Blue dye; assay type: cell-based; conditions: Homo sapiens
In short: (§1)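 Using 4,000-5,000 cells per well, cultures were exposed to compound for four days at 37° C., 5% CO2. Alamar Blue was then added for 4 h, and fluorescence was read at 544 nm excitation / 590 nm emission.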

[12] = system: MDAMB231; test: Cell-proliferation assay using Alamar Blue dye; assay type: cell-based; conditions: Homo sapiens, MDA-MB-231
In short: as §1

[13] = system: LNCaP; test: Cell-proliferation assay using Alamar Blue dye; assay type: cell-based; conditions: Homo sapiens
In short: as §1

[14] = system: MCF-7; test: Cell-proliferation assay using Alamar Blue dye; assay type: cell-based; conditions: Homo sapiens, MCF7
In short: as §1

Sequence of recombinant human PIM1 (P11309 whole entry): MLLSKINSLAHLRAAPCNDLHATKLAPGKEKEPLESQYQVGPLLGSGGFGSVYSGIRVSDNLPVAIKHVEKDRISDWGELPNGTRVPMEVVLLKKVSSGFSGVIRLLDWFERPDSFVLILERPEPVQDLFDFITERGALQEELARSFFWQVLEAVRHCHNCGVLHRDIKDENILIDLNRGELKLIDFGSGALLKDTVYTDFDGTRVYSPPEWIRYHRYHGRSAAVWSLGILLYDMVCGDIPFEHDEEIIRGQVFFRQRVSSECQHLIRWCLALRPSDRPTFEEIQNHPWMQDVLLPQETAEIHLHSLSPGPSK
Sequence of Flt3 (P36888 27-993): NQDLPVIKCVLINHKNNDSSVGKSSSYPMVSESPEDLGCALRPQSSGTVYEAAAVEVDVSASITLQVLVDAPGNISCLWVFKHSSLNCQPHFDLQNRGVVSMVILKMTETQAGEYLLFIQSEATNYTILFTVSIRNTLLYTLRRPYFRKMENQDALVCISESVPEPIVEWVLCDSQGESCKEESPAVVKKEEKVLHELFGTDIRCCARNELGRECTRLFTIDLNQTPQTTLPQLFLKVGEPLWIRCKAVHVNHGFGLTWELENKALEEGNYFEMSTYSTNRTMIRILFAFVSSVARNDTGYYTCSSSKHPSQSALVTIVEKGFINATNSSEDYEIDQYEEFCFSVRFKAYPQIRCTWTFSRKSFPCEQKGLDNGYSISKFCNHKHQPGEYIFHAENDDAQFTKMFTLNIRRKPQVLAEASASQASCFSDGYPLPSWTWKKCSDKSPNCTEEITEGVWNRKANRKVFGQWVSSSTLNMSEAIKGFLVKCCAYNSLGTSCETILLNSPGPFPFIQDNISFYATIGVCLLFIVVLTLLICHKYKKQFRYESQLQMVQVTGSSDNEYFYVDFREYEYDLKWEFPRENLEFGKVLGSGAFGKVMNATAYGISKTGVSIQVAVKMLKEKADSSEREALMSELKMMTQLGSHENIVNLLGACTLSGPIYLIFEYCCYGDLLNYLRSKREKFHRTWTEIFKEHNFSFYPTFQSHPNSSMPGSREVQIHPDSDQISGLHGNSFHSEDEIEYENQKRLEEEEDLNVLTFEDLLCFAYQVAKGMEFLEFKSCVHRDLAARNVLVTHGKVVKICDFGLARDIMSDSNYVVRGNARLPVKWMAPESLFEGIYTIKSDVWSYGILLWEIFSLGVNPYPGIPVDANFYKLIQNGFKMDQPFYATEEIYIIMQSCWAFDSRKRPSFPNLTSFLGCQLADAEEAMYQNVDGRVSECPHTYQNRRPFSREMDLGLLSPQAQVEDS

O=C(O)c1ccc2c(c1)nc(Nc1ccc(OCc3ccccc3)cc1)c1ccncc12
inhibition at 0.5 µM [1]: 44.3% | IC50 [2]: 14.2 µM | IC50 [3]: > 10 µM

O=C(O)c1ccc2c(c1)nc(Nc1ccccc1OCc1ccccc1)c1ccncc12
inhibition at 0.5 µM [1]: 27.7% | IC50 [2]: 29.8 µM | IC50 [4]: > 10 µM | IC50 [5]: > 10 µM | IC50 [3]: > 10 µM

O=C(O)c1ccc2c(c1)nc(Nc1ccc3c(c1)OCCO3)c1ccncc12
inhibition at 0.5 µM [1]: 88.4% | IC50 [1]: 0.259 µM | IC50 [2]: 29.6 µM | IC50 [4]: > 10 µM | IC50 [5]: > 10 µM | IC50 [3]: > 10 µM

C[C@]12O[C@H](C[C@]1(O)CO)n1c3ccccc3c3c4c(c5c6ccccc6n2c5c31)CNC4=O [CEP-701]
inhibition of Flt3 [6]: potent inhibitor

CN(C)C[C@@H]1CCn2cc(c3ccccc32)C2=C(C(=O)NC2=O)c2cn(c3ccccc23)CCO1 [Ly5333′531]
cell growth and cell death [7]: suppressed cell growth and induced cell death

CN1CCC(CNc2ccc3ncc(-c4cccc(OC(F)(F)F)c4)n3n2)CC1 [SGI-1776]
tumor regression [8]: significant tumor regression | tumor regression [9]: significant tumor regression

O=C(O)c1ccc2c(c1)nc(NCCc1cccc(Cl)c1)c1ccncc12 [drawing 1001]
IC50 [10]: 9.18 µM | IC50 [11]: 32.5 µM | IC50 [12]: 14.2 µM | IC50 [13]: 13.9 µM | IC50 [14]: 47.6 µM

O=C(O)c1ccc2c(c1)nc(NCCCc1ccccc1)c1ccncc12 [drawing 1003]
IC50 [10]: 7.17 µM | IC50 [11]: > 50 µM | IC50 [12]: 7.66 µM | IC50 [13]: 10.4 µM | IC50 [14]: > 50 µM

Source: patent publication US8168651B2, “Protein kinase modulators” (Cylene Pharmaceuticals, Inc., priority 2008, dated 2012)
